“And” between values parts separate entries of the source, which are not always exact repeats. Identical values can stand only once.
How the values were obtained:
BRD4 BD1 protein = BRD4 BD1 protein (Homo sapiens (Human), UniProt O60885); experiment: Fluorescence polarization binding affinity (Ki) with BRD4 BD1 protein; conditions: fluorescence polarization; Ki calculated from IC50
[1] = tested on: leukemia MV4-11 cell line; experiment: Cell viability (CCK-8), leukemia MV4-11; type: cell-based; conditions: Homo sapiens, 96 h; MV4-11 cells, 4 days, CCK-8, 50% inhibition of cell growth
Description: (§1) 3. Determination of cell viability of the compound
(§2) The sample to be tested was dissolved with 100% dimethyl sulfoxide to prepare a 20 mM stock solution of the compound, which was diluted with 100% dimethyl sulfoxide to the highest compound concentration required for the experiment (2.5 mM).
(§3) First, 145 uL of a complete cell culture medium was added to wells B1-G1 of a 96-well flat-bottomed tansparent cell culture plate, and 100 uL of the complete medium was added to wells B2-G12, respectively. Then, 5 uL of the 2.5 mM solution of the compound was added to wells B1-D1 and E1-G1 respectively, and then diluted gradiently by 3-folds to B12-D12 and E12-G12 in sequence. Finally, 50 uL of the solution of the cells to be tested was added to each well, with about 3000-5000 cells per well, and a total volume of 150 uL per well.
(§4) In the experiment, in addition to the tested compound, two other control groups were set up: 1) a control group adding the cells and the complete medium, but without adding the compound; 2) a control group adding the complete medium only, without adding the cells and the compound. The 96-well plate was placed in a 37° C. cell culture incubator containing 5% carbon dioxide for 4 days, added with 15 uL of a CCK-8 reagent per well, and then incubated at 37° C. for 2-4 hours. The 96-well plate was read on a TECAN microplate reader, and the absorbance value at 450 nm wavelength was taken.
(§5) The effect of different concentrations of the compound on cell viability was calculated by the following equation: [absorption value of the experimental group−absorption value of pure cell culture medium without the cells or the compound]/[absorption value of the control group with the tumor cells but no testing compound−absorption value of pure cell culture medium without the cell or the compound]×100%.
(§6) The above data were precessed by software, and the IC50 value was the concentration of the compound corresponding to the 50% inhibition rate of cell growth.
(§7) Based on the above test method of the compound on cell viability, a variety of […] cancer cell lines were tested, using multiple myeloma MM.1S, breast cancer MDA-MB-231 and leukemia MV4-11 cell lines as exemples. Using this test method, the IC50 values of partial compounds in the examples of the present invention measured in multiple myeloma MM.1S, breast cancer MDA-MB-231 cell lines and leukemia MV4-11 cell lines were shown in Table 2.

[2] = tested on: multiple myeloma MM.1S cell line; experiment: Cell viability (CCK-8), multiple myeloma MM.1S; type: cell-based; conditions: Homo sapiens, MM1.S, 96 h, MM.1S cells, 4 days, CCK-8, 50% inhibition of cell growth
Procedure, shortened: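 Cells (about 3000-5000 per well) exposed to 3-fold serial dilutions of compound for 4 days at 37° C, 5% CO2. CCK-8 added 2-4 h, absorbance at 450 nm, viability normalised to untreated cells after medium-only blank subtraction; IC50 is concentration giving 50% growth inhibition.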

BRD4 BD2 protein = BRD4 BD2 protein (Homo sapiens (Human), UniProt O60885); experiment: Fluorescence polarization binding affinity (Ki) with BRD4 BD2 protein; design: BRD4 BD2 Ki: reference not given here; conditions: fluorescence polarization; Ki calculated from IC50
[3] = tested on: breast cancer MDA-MB-231 cell line; experiment: Cell viability (CCK-8), breast cancer MDA-MB-231; type: cell-based; conditions: Homo sapiens, 96 h; MDA-MB-231 cells, 4 days, CCK-8, 50% inhibition of cell growth
Description: as §1, §2, §3, §4, §5, §6, §7

Ki (BRD4 BD1 protein)	IC50 [1]	IC50 [2]	Ki (BRD4 BD2 protein)	IC50 [3]	Compound	BRD4 BD2 Ki (BRD4 BD2 protein)
1720 nM	106 nM	1300 nM	28.8 nM		Cc1nnn2c1-c1ccc(C3=CCN(C4CCCCC4)CC3)cc1C(Nc1cc(Cl)ccc1F)CC2 (centres unmarked) [BH187, N-(5-chloro-2-fluorophenyl)-9-(1-cyclohexyl-1,2,3,6-tetrahydropyridin-4-yl)-1-methyl-6,7-dihydro-5H-benzo[c][1,2,3]triazolo[1,5-a]azepin-7-amine 2,2,2-trifluoroacetate]	
1620 nM	62.8 nM	248 nM	12.9 nM and 27.9 nM		Cc1nnn2c1-c1ccc(C3=CCN(C4CCCC4)CC3)cc1C(Nc1cc(Cl)ccc1F)CC2 (centres unmarked) [BH190, N-(5-chloro-2-fluorophenyl)-9-(1-cyclopentyl-1,2,3,6-tetrahydropyridin-4-yl)-1-methyl-6,7-dihydro-5H-benzo[c][1,2,3]triazolo[1,5-a]azepin-7-amine 2,2,2-trifluoroacetate]	
106 nM	0.21 nM	6.15 nM	3.45 nM		CC(=O)N1CC=C(c2ccc3c(c2)C(Nc2cc(Cl)ccc2F)CCn2nnc(C)c2-3)CC1 (centres unmarked) [BH192, 1-(4-(7-((5-chloro-2-fluorophenyl)amino)-1-methyl-6,7-dihydro-5H-benzo[c][1,2,3]triazolo[1,5-a]azepin-9-yl)-3,6-dihydropyridin-1 (2H)-yl)ethan-1-one]	
83.1 nM		6.05 nM	55.9 nM	89 nM	COc1ccc2c(c1)C(Nc1ccc(C#N)cc1)CCc1onc(C)c1-2 (centres unmarked) [FA06, 4-(8-methoxy-1-methyl-5,6-dihydro-4H-benzo[6,7]cyclohepta[1,2-d]isoxazol-6-yl)aminobenzonitrile]	
94.8 nM		4.28 nM	26.9 nM	450 nM	Cc1nnn2c1-c1ccc(-c3cnn(C)c3)cc1C(Nc1ccccc1N(C)C)CC2 (centres unmarked) [LB01, N^1,N^1-dimethyl-N^2-(1-methyl-9-(1-methyl-1H-pyrazol-4-yl)-6,7-dihydro-5H-benzo[c][1,2,3]triazolo[1,5-a]azepin-7-yl)benzene-1,2-diamine]	
45 nM		2.03 nM	10.9 nM	43 nM	COC(=O)c1ccc(NC2CCn3nnc(C)c3-c3ccc(-c4cnn(C)c4)cc32)cc1 (centres unmarked) [LB37, methyl 4-((1-methyl-9-(1-methyl-1H-pyrazol-4-yl)-6,7-dihydro-5H-benzo[c][1,2,3]triazolo[1,5-a]azepin-7-yl)amino)benzoate]	
95.7 nM	39.3 nM	26 nM	12.7 nM		Cc1nnn2c1-c1ccc(-c3cnn(C)c3)cc1C(Nc1cccc(CO)c1)CC2 (centres unmarked) [LB164, (3-((1-methyl-9-(1-methyl-1H-pyrazol-4-yl)-6,7-dihydro-5H-benzo[c][1,2,3]triazolo[1,5-a]azepin-7-yl)amino)phenyl)methanol]	
94.6 nM	< 0.1 nM	< 1 nM	16.1 nM		Cc1nnn2c1-c1ccc(-c3cnn(C)c3)cc1C(Nc1ccccc1CO)CC2 (centres unmarked) [LB192, (2-((1-methyl-9-(1-methyl-1H-pyrazol-4-yl)-6,7-dihydro-5H-benzo[c][1,2,3]triazolo[1,5-a]azepin-7-yl)amino)phenyl)methanol]	
7.8 nM	15.4 nM	25.2 nM			CNC(=O)Cc1ccccc1NC1CCn2nnc(C)c2-c2ccc(-c3cnn(C)c3)cc21 (centres unmarked) [LC11, N-methyl-2-(2-((1-methyl-9-(1-methyl-1H-pyrazol-4-yl)-6,7-dihydro-5H-benzo[c][1,2,3]triazolo[1,5-a]azepin-7-yl)amino)phenyl)acetamide]	<Kd
33.7 nM		2.34 nM	7.6 nM	11 nM	Cc1nnn2c1-c1ccc(-c3cnn(C)c3)cc1C(Nc1ccc(Cl)cc1)CC2 (centres unmarked) [RA180, N-(4-chlorophenyl)-1-methyl-9-(1-methyl-1H-pyrazol-4-yl)-6,7-dihydro-5H-benzo[c][1,2,3]triazolo[1,5-a]azepin-7-amine]	
23.2 nM	< 0.1 nM	2.32 nM	5.73 nM	1 nM	CCn1cc(-c2ccc3c(c2)C(Nc2ccc(Cl)cc2)CCn2nnc(C)c2-3)cn1 (centres unmarked) [RB05, N-(4-chlorophenyl)-9-(1-ethyl-1H-pyrazol-4-yl)-1-methyl-6,7-dihydro-5H-benzo[c][1,2,3]triazolo[1,5-a]azepin-7-amine]	
45.8 nM		1.1 nM	14 nM	105 nM	Cc1nnn2c1-c1ccc(-c3cnc4[nH]cnc4c3)cc1C(Nc1ccc(Cl)cc1)CC2 (centres unmarked) [RB43, N-(4-chlorophenyl)-9-(3H-imidazo[4,5-b]pyridin-6-yl)-1-methyl-6,7-dihydro-5H-benzo[c][1,2,3]triazolo[1,5-a]azepin-7-amine]	
45.1 nM		2.5 nM	16.5 nM	65 nM	Cc1nnn2c1-c1ccc(-c3cn(C)nn3)cc1C(Nc1ccc(Cl)cc1)CC2 (centres unmarked) [RB48, N-(4-chlorophenyl)-1-methyl-9-(1-methyl-1H-1,2,3-triazol-4-yl)-6,7-dihydro-5H-benzo[c][1,2,3]triazolo[1,5-a]azepin-7-amine]	

Compound	Ki (BRD4 BD1 protein)	IC50 [1]	IC50 [2]	Ki (BRD4 BD2 protein)	IC50 [3]	BRD4 BD2 Ki (BRD4 BD2 protein)
Cc1nnn2c1-c1ccc(C3=CCN(C4CCC4)CC3)cc1C(Nc1cccc(Cl)c1)CC2 (centres unmarked) [BH159, N-(3-chlorophenyl)-9-(1-cyclobutyl-1,2,3,6-tetrahydropyridin-4-yl)-1-methyl-6,7-dihydro-5H-benzo[c][1,2,3]triazolo[1,5-a]azepin-7-amine 2,2,2-trifluoroacetate]	879 nM	75.2 nM	285 nM	9.31 nM		
CNC(=O)Cc1cccc(NC2CCn3nnc(C)c3-c3ccc(-c4cnn(C)c4)cc32)c1 (centres unmarked) [LC10, N-methyl-2-(3-((1-methyl-9-(1-methyl-1H-pyrazol-4-yl)-6,7-dihydro-5H-benzo[c][1,2,3]triazolo[1,5-a]azepin-7-yl)amino)phenyl)acetamide]	69.3 nM	12.8 nM	104 nM			<Kd
CCN1CC=C(c2ccc3c(c2)C(Nc2ccc(Cl)cc2)CCn2nnc(C)c2-3)CC1 (centres unmarked) [LD23, N-(4-chlorophenyl)-9-(1-ethyl-1,2,3,6-tetrahydropyridin-4-yl)-1-methyl-6,7-dihydro-5H-benzo[c][1,2,3]triazolo[1,5-a]azepin-7-amine 2,2,2-trifluoroacetate]	334 nM	7.32 nM	443 nM	41.5 nM		
Cc1nnn2c1-c1ccc(C3=CCN(C(C)C)CC3)cc1C(Nc1ccc(Cl)cc1)CC2 (centres unmarked) [LD24, N-(4-chlorophenyl)-9-(1-isopropyl-1,2,3,6-tetrahydropyridin-4-yl)-1-methyl-6,7-dihydro-5H-benzo[c][1,2,3]triazolo[1,5-a]azepin-7-amine 2,2,2-trifluoroacetate]	293 nM	19 nM	447 nM	21.6 nM		
Cc1nnn2c1-c1ccc(C3=CCN(C4CCCCC4)CC3)cc1C(Nc1ccc(F)c(Cl)c1)CC2 (centres unmarked) [LD76, N-(3-chloro-4-fluorophenyl)-9-(1-cyclohexyl-1,2,3,6-tetrahydropyridin-4-yl)-1-methyl-6,7-dihydro-5H-benzo[c][1,2,3]triazolo[1,5-a]azepin-7-amine 2,2,2-trifluoroacetate]	1060 nM	106 nM	879 nM	10.7 nM and 36.1 nM		
Cc1nnn2c1-c1ccc(C3=CCN(C(C)C)CC3)cc1[C@H](Nc1cccc(Cl)c1)CC2 [RE13 (R), (7R)—N-(3-chlorophenyl)-9-(1-isopropyl-1,2,3,6-tetrahydropyridin-4-yl)-1-methyl-6,7-dihydro-5H-benzo[c][1,2,3]triazolo[1,5-a]azepin-7-amine 2,2,2-trifluoroacetate]	1420 nM	126 nM	546 nM	14.8 nM		

From patent publication US12286435B2, “Compound having benzo seven-membered ring structure, preparation method therefor, and use thereof” (BIONNA (BEIJING) MEDICAL TECHNOLOGY CO., LTD., priority 2019, dated 2025)
